For orientation: Cmax means the peak of the concentration-time curve.

Where two headings read alike, the source gives them in different places.

Results on 2 compounds are retold here after patent US20240025905A1, “SALTS OF DIHYDROPYRIMIDINE DERIVATIVES, COMPLEXES AND USES THEREOF IN MEDICINE” (SUNSHINE LAKE PHARMA CO., LTD., priority 2020, published 2024).

In series [1] the test system is HBV. The conditions noted are these: PCT application WO2019076310A1; cited from earlier work.
The nature of series [2]: Stability test (high temperature, high humidity and light tests). In kind it is physicochemical. As for the experimental part: High temperature test: An appropriate amount of the test product was added into a flat weighing bottle and spread into a thin layer with thickness ≤5 mm. The bottle was placed at 60° C. or 40° C. for 10 days. Samples were taken at the 5th and 10th days to check the appearance, related substances and purity.
High humidity test: An appropriate amount of the test product was added into a flat weighing bottle and spread into a thin layer with thickness 5 mm. The bottle was placed at 25° C. and a relative humidity of 90%±5% for 10 days. Samples were taken at the 5th and 10th days to check the appearance, related substances and purity. At the same time, the weight of the test product before and after the test were accurately weighed to investigate the moisture absorption and deliquescence performance of the test product. Light test: An appropriate amount of the test product was added into a flat weighing bottle and spread into a thin layer with thickness ≤5 mm. The bottle was opened and placed in a light box (with UV) at the illuminance 4500±500 lx, UV light≥0.7 w/m^2 for 10 days. Samples were taken at the 5th and 10th days to check the appearance, related substances and purity.

Series [3] in a line: Pharmacokinetic evaluation of experimental animals after oral administration. Type of series: in vivo, Beagle dogs. The conditions noted are these: for AUC0-t / Cmax: beagle dogs, oral via capsules, 10 mg/kg; for absorption in the body / in animals (in words): in vivo. On the procedure:
Blood samples were taken at 0.25, 0.5, 1, 2, 4, 6, 8 and 24 hours from forelimb vein after the administration, and collected in anticoagulation tube with EDTA-K2. After liquid-liquid extraction, the blood samples were quantitatively analyzed on a triple quadrupole tandem mass spectrometer using multiple reactive ion monitoring (MRM). Pharmacokinetic parameters (AUC0-t and Cmax) were calculated using a noncompartmental method by WinNonLin 6.3 software.

Series [4] can be described thus: Experimental research on hygroscopicity. Type of series: physicochemical. The conditions noted are these: 25° C.±1° C., relative humidity 90%±2%, 24 hours. On the procedure: A dry stoppered glass weighing bottle (outer diameter was 50 mm, height was 15 mm) was placed in a suitable constant temperature dryer (a saturated solution of ammonium chloride or ammonium sulfate was placed at the bottom, the relative humidity was within 90%±2%) at 25° C.±1° C. the day before, and the weighing bottle was precisely weighed (m1). An appropriate amount of the test product was spread flat in the above weighing bottle. The thickness of the test product was generally about 1 mm, and the weighing bottle was precisely weighed (m2). The weighing bottle was opened and placed for 24 hours under the above constant temperature and humidity conditions with the bottle cap. The weighing bottle was closed and precisely weighed (m3), and the weight gain percentage (%) was calculated. Testing method: According to Ph.

The mark [5] stands for this setting: High humidity (90% RH), 25° C., 5 days.
The mark [6] stands for this setting: High humidity (90% RH), 25° C., 10 days.
[7] abbreviates: High temperature (60° C.), 5 days.
Where [8] appears, read: High temperature (60° C.), 10 days.
[9] abbreviates: Light (4500±500 lx, UV light≥0.7 w/m^2), 5 days.
The mark [10] stands for this setting: Light (4500±500 lx, UV light≥0.7 w/m^2), 10 days.

Turning to `COC(=O)C1=C(CN2CCN3C(=O)N(c4ccc(CCC(=O)O)cc4F)C[C@@H]3C2)NC(c2nccs2)=N[C@H]1c1ccc(F)cc1Cl` [Compound having Formula (I), 3-(4-((S)-7-(((R)-6-(2-chloro-4-fluorophenyl)-5-(methoxycarbonyl)-2-(thiazol-2-yl)-3,6-dihydropyrimidin-4-yl)methyl)-3-oxohexahydroimidazo[1,5-a]pyrazine-2(3H)-yl)-3-fluorophenyl)propionic acid], the “HBV inhibitory activity (in words)” value in series [1] was “good HBV inhibitory activity”. In addition, the “Purity (%)” value in series [2] (0 days) is on record as 98.61%; in series [2] (setting [5]) it was 98.66%; in series [2] (setting [6]) it was 98.75%; in series [2] (setting [7]), 95.40%; in series [2] (setting [8]), 94.07%; in series [2] (setting [9]) it was 98.66%. The “Purity (%)” value in series [2] (setting [10]) turned out to be 98.20%. The “stability under high temperature (in words)” value in series [2] (high temperature (such as 60° C.)) is “unstable”. In addition, in series [3] (dog, blood, read-out: AUC0-t), the AUC0-t worked out at 6340 ng·h/mL. Further, in series [3] (dog, blood, read-out: Cmax), the Cmax is 3720 ng/mL. In addition, in series [3] (dog), the “absorption in the body / in animals (in words)” value is “unsatisfactory”.
As to `COC(=O)C1=C(CN2CCN3C(=O)N(c4ccc(CCC(=O)O)cc4F)C[C@@H]3C2)N=C(c2nccs2)N[C@H]1c1ccc(F)cc1Cl.O=S(=O)(O)O` [Sulfate crystal form B of the compound having Formula (Ia)] [3-(4-((S)-7-(((R)-6-(2-chloro-4-fluorophenyl)-5-(methoxycarbonyl)-2-(thiazol-2-yl)-1,6-dihydropyrimidin-4-yl)methyl)-3-oxohexahydroimidazo[1,5-a]pyrazine-2(3H)-yl)-3-fluorophenyl)prop ionic acid sulfate crystal form B], the “Purity (%)” value is recorded as 98.98% in series [2] (0 days); 98.90% in series [2] (setting [5]); 98.94% in series [2] (setting [6]); 98.94% in series [2] (setting [7]); 98.68% in series [2] (setting [8]); 99.01% in series [2] (setting [9]). The “Purity (%)” value in series [2] (setting [10]) is reported as 98.91%. Also, in series [2] (high temperature, high humidity or light conditions for 10 days), the “stability (in words)” value is given as “very good”. In addition, the “Weight gain of moisture absorption (%)” value in series [4] is reported as 0.97%. Further, in series [4], the hygroscopicity judgment result is on record as “slightly hygroscopicity”. Further, the AUC0-t in series [3] was 10840 ng·h/mL. This compound showed a maximum concentration (Cmax) in series [3] of 6620 ng/mL. Besides, in series [3] (dog), the “absorption in the body / in animals (in words)” value is “better absorbed”. Besides, the “exposure / pharmacokinetic properties (in words)” value in series [3] (experimental animals, oral) is on record as “higher exposure”.
